According to PubChem BioAssay AID248 (DTP/NCI, 2004):
Inconclusive results and toxic doses are left out. Rule as the data show it: active = T/C of 150% or more; inactive = T/C below 125%.

Test system: L1210 leukemia ip in BDF1 mice, survival T/C
Assay: NCI In Vivo Anticancer Drug Screen. Data for tumor model L1210 Leukemia (intraperitoneal) in B6D2F1 (BDF1) mice
Conditions: endpoint: mean survival time, higher = longer survival
Summary of the method: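 Tumor cells were implanted, animals were treated, and survival was followed. The result divides the treated measurement by the vehicle-control measurement.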

[1] = dose: 100.0 mg/kg/injection, schedule: Q01DX009 (ip), vehicle: Klucel (hydroxypropylcellulose) (HPC)
[2] = dose: 100.0 mg/kg/injection, schedule: Q04DX003 (ip), vehicle: saline
[3] = dose: 200.0 mg/kg/injection, schedule: Q01DX009 (ip), vehicle: Klucel (hydroxypropylcellulose) (HPC)
[4] = dose: 200.0 mg/kg/injection, schedule: Q04DX003 (ip), vehicle: saline
[5] = dose: 400.0 mg/kg/injection, schedule: Q01DX009 (ip), vehicle: Klucel (hydroxypropylcellulose) (HPC)
[6] = dose: 100.0 mg/kg/injection, schedule: Q04DX003 (ip), vehicle: Klucel (hydroxypropylcellulose) (HPC)
[7] = dose: 200.0 mg/kg/injection, schedule: Q04DX003 (ip), vehicle: Klucel (hydroxypropylcellulose) (HPC)
[8] = dose: 400.0 mg/kg/injection, schedule: Q04DX003 (ip), vehicle: Klucel (hydroxypropylcellulose) (HPC)
[9] = dose: 100.0 mg/kg/injection, schedule: Q01DX001 (ip), vehicle: saline
[10] = dose: 200.0 mg/kg/injection, schedule: Q01DX001 (ip), vehicle: saline
[11] = dose: 400.0 mg/kg/injection, schedule: Q01DX001 (ip), vehicle: saline
[12] = dose: 100.0 mg/kg/injection, schedule: Q01DX009 (ip), vehicle: saline with Tween-80
[13] = dose: 200.0 mg/kg/injection, schedule: Q01DX009 (ip), vehicle: saline with Tween-80

Measured: T/C

COC(=O)CCCCCCCCC(C)c1ccccc1 (centres undefined)
inactive: [1] 98 % of control | [2] 103 % of control | [3] 92 % of control | [4] 89 % of control | [5] 97 % of control | dose: 400.0 mg/kg/injection, schedule: Q04DX003 (ip), vehicle: saline 92 % of control

CC1NC1(c1ccccc1)[n+]1ccccc1 (centres undefined)
inactive: dose: 50.0 mg/kg/injection, schedule: Q01DX009 (ip), vehicle: saline 97 % of control | dose: 100.0 mg/kg/injection, schedule: Q01DX009 (ip), vehicle: saline 95 % of control | [2] 105 % of control | [4] 105 % of control

COC(=O)C1(N(C)C)c2ccccc2-c2ccccc21
inactive: dose: 100.0 mg/kg/injection, schedule: Q01DX001 (ip), vehicle: carboxymethylcellulose (CMC) 105 % of control

CC(=O)Nc1cc(C(=O)Nc2cccc(C3=NCCN3)c2)ccc1C(=O)Nc1cccc(C2=NCCN2)c1
inactive: dose: 1.3 mg/kg/injection, schedule: Q01DX Z (ip), vehicle: methylcellulose (MC) 96 % of control

Cc1ccccc1/C=C1\CC(C)(C)c2ccccc2C1=O
inactive: [1] 105 % of control | [6] 95 % of control | [3] 97 % of control | [7] 95 % of control | [5] 97 % of control | [8] 97 % of control

O=C(Nc1cccc2cnccc12)c1ccc(C(=O)Nc2cccc3cnccc23)cc1
inactive: [9] 98 % of control | [10] 104 % of control | [11] 104 % of control

Cc1ccc(C)c(OCC(=O)O)c1
inactive: [6] 97 % of control | [7] 101 % of control | [8] 101 % of control

C[N+](C)(C)c1ncnc2[n-]cnc12
inactive: dose: 50.0 mg/kg/injection, schedule: Q01DX015 (ip), vehicle: saline 110 % of control

O=c1c(=O)c2ccccc2c(=O)/c1=N/Nc1ccccc1
inactive: dose: 100.0 mg/kg/injection, schedule: Q01DX001 (ip), vehicle: water 98 % of control | dose: 200.0 mg/kg/injection, schedule: Q01DX001 (ip), vehicle: water 95 % of control | dose: 400.0 mg/kg/injection, schedule: Q01DX001 (ip), vehicle: water 97 % of control

CC(=O)NCCCCC(=O)c1ccccc1
inactive: [12] 102 % of control | [13] 100 % of control

CC(=O)Nc1cccc([N+](=O)[O-])c1
inactive: dose: 50.0 mg/kg/injection, schedule: Q01DX009 (ip), vehicle: saline with Tween-80 100 % of control | [9] 108 % of control | [12] 90 % of control | [10] 102 % of control | [13] 103 % of control | [11] 108 % of control

CC1=CC2(C)CCC(=O)C(Cc3c(CCCC4(C)OCCO4)noc3C)=C2CC1 (centres undefined)
inactive: [6] 95 % of control | [7] 95 % of control | [8] 91 % of control

O=C(O)C1CCC(CC2CC3CCC2C3)CC1 (centres undefined)
inactive: [12] 90 % of control | [13] 96 % of control

O=C(O)CCCC[Se][Se]CCCCC(=O)O
inactive: dose: 25.0 mg/kg/injection, schedule: Q01DX001 (ip), vehicle: Klucel (hydroxypropylcellulose) (HPC) 102 % of control | dose: 50.0 mg/kg/injection, schedule: Q01DX001 (ip), vehicle: Klucel (hydroxypropylcellulose) (HPC) 96 % of control | dose: 100.0 mg/kg/injection, schedule: Q01DX001 (ip), vehicle: Klucel (hydroxypropylcellulose) (HPC) 99 % of control
